# According to patent US4229479A, “Fluoracylresorcinols as ingredients in pharmaceutical, cosmetic and pesticidal compositions” (Boehringer Ingelheim GmbH, priority 1976, dated 1980):
# Like-named read-outs stand apart in the source and are kept apart here.
# Tests used:
# [1] = molecular target: T1, glucose-6-phosphate-dehydrogenase (Saccharomyces cerevisiae, UniProt P11412); assay: Inhibition of the glucose-6-phosphate-dehydrogenase; assay type: biochemical; details: 366 nm
# T1 construct: purchased Boehringer Mannheim
# T1 sequence (P11412 1-505): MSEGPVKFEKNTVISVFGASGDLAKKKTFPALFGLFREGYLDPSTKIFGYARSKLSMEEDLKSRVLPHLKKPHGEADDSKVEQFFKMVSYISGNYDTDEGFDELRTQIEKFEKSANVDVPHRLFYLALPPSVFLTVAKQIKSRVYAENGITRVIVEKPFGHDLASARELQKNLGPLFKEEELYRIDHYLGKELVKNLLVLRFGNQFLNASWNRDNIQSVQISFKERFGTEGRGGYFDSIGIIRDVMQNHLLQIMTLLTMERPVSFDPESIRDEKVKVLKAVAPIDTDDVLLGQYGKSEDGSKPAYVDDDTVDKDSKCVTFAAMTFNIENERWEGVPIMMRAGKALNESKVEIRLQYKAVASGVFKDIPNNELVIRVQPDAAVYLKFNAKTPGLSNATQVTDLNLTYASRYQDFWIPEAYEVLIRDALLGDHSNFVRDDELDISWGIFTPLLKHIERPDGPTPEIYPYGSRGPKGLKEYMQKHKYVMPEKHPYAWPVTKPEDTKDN
# Procedure: Measurement of the inhibition of the glucose-6-phosphate-dehydrogenase.
# The equilibrium was observed: [drawing 6]
# The rate of formation of NADPH is a measure for the enzyme activity; it may be observed by means of the extinction increase at 340,334 or 366 nm per unit of time.
# 0.025 ml of glucose-6-phosphate-dehydrogenase (Boehringer Mannheim) were filled up to 10 ml of distilled water (solution I). 100 mgm of nicotinamide-adenine-dinucleotide-phosphate were dissolved in 13 ml of distilled water (solution II). 47.2 mgm of glucose-6-phosphate were dissolved in further 10 ml of distilled water (solution III). Simultaneously a buffer solution (solution IV) was prepared as follows:
# 0.28 gm of triethanolamine-hydrochloride and 1.461 gm of ethylene diaminotetraacetic acid-disodium salt were dissolved in 1 liter of distilled water and adjusted to a pH of 7.6 with sodium hydroxide solution. The substance under test was dissolved in dimethyl formamide or ethanol (solution V). Tested concentrations: 50; 25; 12.5; 6.25; 3.125; 1.56 and 0.78 μg/ml.
# 0.1 ml of solution I, 0.1 ml of solution II, 2.67 ml of solution IV and 0.03 ml of solution V were mixed and kept at 25° C. for 5 minutes. Then 0.1 ml of solution III was added, mixed and the alteration of extinction was determined spectrophotometrically at 366 nm for 3 minutes.
# 0.1 ml of solution I, 0.1 ml of solution II, 2.67 ml of solution IV and 0.03 ml of solution V were mixed and kept at 37° C. for 60 minutes. Then 0.1 ml of solution III was added, mixed and the alteration of extinction was measured spectrophotometrically at 366 nm for 3 minutes.
# The inhibitory values were calculated from the average values of three measurements (alteration of extinction per minute) compared with controls, which received the pure solvent as the inhibitory solution. Then the ED50 was calculated according to Reed and Muench from the inhibitory values for the various concentrations.
# [2] = Compatibility on the skin under occlusion; assay type: in vivo; details: cream containing 10% of compound A; over 24 hours under occlusion
# [3] = Acute toxicity, LD50 in the mouse; details: in vivo, ip, death within 14 days
# Procedure: The acute toxicity was determined with mice. The LD50, the dose leading to the death of 50% of the animals within 14 days, was calculated.
# HeLa-cell culture = assay: Inhibition of cell cultures (HeLa); assay type: cell-based; details: Homo sapiens, 72 h, 37° C., 3 days, read-out: Minimal inhibitory concentration
# Procedure: Measurement of the inhibition of cell cultures
# HeLa-cell culture was treated with trypsin and adjusted to a cell number of 150,000 cells/ml of fresh medium. The substance was always dissolved in the same quantity of dimethyl sulfoxide and then further diluted with growth medium. 0.1 ml of the substance-dilutions were added to each well of microtiter plates and then 0.2 ml of cell suspension were added (4 wells per dilution). Several growth controls containing 0.1 ml of growth medium instead of 0.1 ml of substance dilution were put up. After careful mixing, the cultures were incubated at 37° C. for 3 days in a 5% carbon dioxide atmosphere. The reading was effected in comparison with these controls. The results were given as the percentage of the deficiency and degeneration compared to the growth control. […] The data are referred to μg of substance per ml of total medium.
# humans = details: cited from earlier work
# [4] = 25° C., 5 minutes before substrate, read-out: G6PDH-inhibition ED50, Immediate Inhibition (converted)
# [5] = 37° C., 60 minutes before substrate, read-out: G6PDH-inhibition ED50, Inhibition of Incubation (converted)
SMILES,"IC50 [1, 4] [µM]","IC50 [1, 5] [µM]",compatibility on the skin [2],LD50 at 336 h [3] [mg/kg],minimal effective concentration (HeLa-cell culture) [µg/mL],allergies in humans (humans)
"CCc1c(O)ccc(C(=O)C(F)(F)F)c1O [C, 3-Ethyl-2,4-dihydroxy-trifluoroacetophenone]",160,85.4,–,–,–,–
"O=C(c1ccc(O)cc1O)C(F)(F)F [Compound A, 2,4-Dihydroxy-trifluoroacetophenone]",> 243,160,tolerated without irritation,105,–,–
"CCc1cc(C(=O)C(F)(F)F)c(O)cc1O [Compound B, 5-Ethyl-2,4-dihydroxy-trifluoroacetophenone]",147,128,–,88,–,–
"COc1ccc(C(=O)C(F)(F)F)c(OC)c1 [D, 2,4-Dimethoxy-trifluoroacetophenone]",> 214,> 214,–,–,25,–
CCCCCCc1ccc(O)cc1O [hexylresorcinol],–,–,–,–,–,in some cases cause allergies in humans
